The test system of data set [1] is 22RV1/PIM-1 xenografts. The data set can be described thus: 22RV1/PIM-1 over-expression tumor xenograft. Format: in vivo, mouse. From the text: (§1) Male and female Nu/Nu mice were purchased from Harlan Sprague Dawley (Indianapolis, Ind.). Female Nu/Nu mice were used for all xenograft evaluations with the exception of the PC-3 xenografts where male Nu/Nu mice were used. Cell lines were expanded in vitro in complete media, and if adherent were harvested by trypsin-EDTA, centrifuged and resuspended in PBS 1:1 with Matrigel (BD Bioscienes). Cells were inoculated subcutaneously in the right hind flank of mice. When tumors reached 100-200 mm^3 by caliper measurement, mice were randomized and dosing of SGI-9481 or vehicle control began and continued every day for 5 days (QD×5) with 2 days off for 18-21 days. Tumor volumes and body weights were determined twice a week, and tumor weights were measured at the completion of the translational xenograft studies.
(§2) The prostate cancer cell line 22RV1 engineered to over-express PIM-1 as previously described (Mumenthaler, et al, Mol. Cancer Ther., 2009, 8(10)2882-93) was evaluated in vivo. A second model engineered to over-express PIM-2 was established using the NIH-3T3 mouse fibroblast cell line.

Data set [2] deals with NIH-3T3/PIM-2 xenografts. As to the kind of experiment: NIH-3T3/PIM-2 over-expression tumor xenograft. Format: in vivo, mouse.
Excerpt: as §1, §2

For data set [3], the system named is UM-UC-3 cells. The data set can be described thus: Colony formation assay, UM-UC-3. The data set is classed as cell-based. On the procedure:
(§3) For shRNA growth experiments, 500 UM-UC-3 cells were seeded in a 12-well plate 48 hours post-transduction and cultured for 8-10 days at 37° C. in 5% CO2. Cells were fixed with 4% paraformaldehyde in PBS, washed twice with PBS, and stained with a crystal violet solution (1% crystal violet, 10% ethanol in water). Stained cells were washed thrice with water, and imaged after drying on a GelCount colony counter (Oxford Optronix Ltd., Oxford, UK). Total staining intensity per well was determined by lysis of cells with 200 μl of Triton X-100 lysis buffer (1% Triton X-100, 50 mM Tris-HCl pH 7.4, 150 mM NaCl, 1 mM EDTA). Lysates (100 μl) from each well were transferred to a clear 96-well plate and absorbance at 560 nm was determined on an Envision microplate reader. IC50 values were determined using GraphPad Prism software. For compound treated PC-3 and UM-UC-3, cells were seeded and stained as above, but were incubated with various concentrations of test compound or DMSO one day after seeding.
(§4) Translational models were also explored for PIM dependency using shRNA knockdown. The UM-UC-3 urinary epithelial bladder carcinoma cell line was used to verify and validate dependency on PIM-1 for growth. […] Reduction of PIM-1 mRNA and growth also were observed using both PIM-1 and PIM-2 shRNA in the androgen-independent prostate carcinoma cell line PC-3 (data not shown).

For data set [4], the system named is PC-3 cells. The data set can be described thus: Colony formation assay, PC-3. The data set is classed as cell-based. The protocol: as §3, §4
The subject of data set [5] is UM-UC-3 xenograft tumors. As to the kind of experiment: UM-UC-3 established mouse xenograft. Format: in vivo.
Excerpt: as §1, with “When tumors reached 100-200 mm^3 by caliper measurement, mice were randomized and dosing of SGI-9481 or vehicle control began and continued every day for 5 days (QD×5) with 2 days off for 18-21 days.” left out

Data set [6] relates to PC-3 xenograft tumors. The data set can be described thus: PC-3 established mouse xenograft. The data set is classed as in vivo.
Excerpt: as §1, with “When tumors reached 100-200 mm^3 by caliper measurement, mice were randomized and dosing of SGI-9481 or vehicle control began and continued every day for 5 days (QD×5) with 2 days off for 18-21 days.” left out

Data set [7] has as its system phosphatidyl inositol-3-kinase (PI3K) family. The data set can be described thus: Selectivity study, PI3K family. Format: biochemical. Conditions: multiple members.
Data set [8] has as its system ML-2 cells (wild-type FLT3). As to the kind of experiment: ML-2 mouse xenograft. Conditions: ML-2, wild-type FLT3. The data set is classed as in vivo.
Excerpt: as §1

For data set [9], the system named is MV-4-11 (FLT3-ITD). As to the kind of experiment: MV-4-11 mouse xenograft. The data set is classed as in vivo.
Excerpt: as §1

As to `CC(C)(O)[C@H]1CC[C@H](Nc2ccc3ncc(-c4cccc(C(F)(F)F)c4)n3n2)CC1` [Compound 8-31], the subcutaneous tumor growth entry in [1] (22RV1/PIM-1 + compound vs vehicle) is listed as “significantly reduced”; in data set [2] (NIH-3T3/PIM-2 + compound vs vehicle), “significantly inhibited”. Moreover, the body weight change result in data set [1] (22RV1 xenograft mice) and in [2] (NIH-3T3 xenograft mice) was “No significant changes in body weight” in each case. The colony growth result in data set [3] and in [4] was “reduced colony growth” each time. Further, the tumor growth inhibition entry in data set [5] (125 mg/kg), in [6] (125 mg/kg) and in data set [8] was “significant tumor growth inhibition” in each case. Further, the “body weight and gross toxicity” value in data set [5] (oral 200 mg/kg) and in [6] (oral 200 mg/kg) was “no significant changes in body weight or gross adverse toxicity” throughout. The “tumor growth by volume and final tumor weight” value in [5] (oral 200 mg/kg) and in [6] (oral 200 mg/kg) was “significantly reduced” in each case. Besides, the “activity against PI3K family members” value in [7] is recorded as “inhibitory activity”. For the same compound, the “effect on established xenografts” value in [9] is recorded as “induced regressions”.

These data come from patent US10875864B2, “Substituted imidazo[1,2-B]pyridazines as protein kinase inhibitors” (SUMITOMO DAINIPPON PHARMA ONCOLOGY, INC., priority 2011, dated 2020).
